This is an account of results in publication PMC12001207 (The FEBS journal, 2025).

Each structure is given as a SMILES string.

Holding throughout (format): cell-based
Experiment [1] concerns the target T1, succinate receptor 1 (SUCNR1) (Homo sapiens, UniProt Q9BXA5).
T1 sequence (Q9BXA5 1-334): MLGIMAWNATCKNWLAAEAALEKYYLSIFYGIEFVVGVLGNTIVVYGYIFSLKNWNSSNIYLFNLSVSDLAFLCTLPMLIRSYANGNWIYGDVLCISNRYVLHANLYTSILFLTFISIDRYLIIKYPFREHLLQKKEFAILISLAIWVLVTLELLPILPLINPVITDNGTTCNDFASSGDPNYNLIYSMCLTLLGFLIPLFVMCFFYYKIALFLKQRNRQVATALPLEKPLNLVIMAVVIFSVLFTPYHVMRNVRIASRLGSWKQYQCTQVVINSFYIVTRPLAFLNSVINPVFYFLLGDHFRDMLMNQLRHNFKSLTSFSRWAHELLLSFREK
The experiment can be described thus: dynamic mass redistribution, concentration-response.

For experiment [2], the target named is T1, succinate receptor 1 (SUCNR1). The experiment can be described thus: cAMP inhibition assay; also DMR, IP1, Ca2+, arrestin-3 and miniG BRET.
For experiment [3] the target is unchanged. In words: antagonism at […] of agonist-induced IP1, Ca2+, cAMP inhibition, DMR and miniG BRET. (In BRET a luciferase serves as donor, and the signal depends on an acceptor being close.)

With `CC(C(=O)O)C(=O)O` [methylmalonate], in experiment [1], the “dynamic mass redistribution, concentration-response” value (from here on “dynamic mass redistribution”) was “Metabolite SUCNR1 agonists (malate, oxaloacetate, methylmalonate, itaconate, malonate) showed concentration-dependent responses upon SUCNR1 stimulation”.

Take `O=C(O)CCC(=O)O` [SUC, succinate]: the EC50 in experiment [2] was ~644 nM.

On to `O=C(O)[C@H]1O[C@H]1C(=O)O` [CES, cis-epoxysuccinate], for which the EC50 in experiment [2] was ~111 nM.

Take `C=C(CC(=O)O)C(=O)O` [itaconate]: the “dynamic mass redistribution” value in experiment [1] is “Metabolite SUCNR1 agonists (malate, oxaloacetate, methylmalonate, itaconate, malonate) showed concentration-dependent responses upon SUCNR1 stimulation”.

As to `CN1CCN(Cc2ccc(-c3cccc(C(=O)Nc4ccccc4CC(=O)O)c3)cc2)CC1` [NF56-EJ40, 2-(2-(4′-((4-methylpiperazin-1-yl)methyl)-[1,1′-biphenyl]-3-carboxamido)phenyl)acetic acid], in experiment [3], the “antagonism at 100 nM of agonist-induced IP1, Ca2+, cAMP inhibition, DMR and mini” value was “NF56-EJ40 also completely inhibited the agonist-induced SUCNR1-mediated IP1 formation and caused a significant shift of the cAMP inhibition curve”.

Consider `O=C(O)CC(=O)C(=O)O` [oxaloacetate], for which, in experiment [1], the “dynamic mass redistribution” value is “Metabolite SUCNR1 agonists (malate, oxaloacetate, methylmalonate, itaconate, malonate) showed concentration-dependent responses upon SUCNR1 stimulation”.

On to `O=C(O)CC(=O)O` [malonate], for which, in experiment [1], the “dynamic mass redistribution” value is on record as “Metabolite SUCNR1 agonists (malate, oxaloacetate, methylmalonate, itaconate, malonate) showed concentration-dependent responses upon SUCNR1 stimulation”.

For the compound `O=C(O)CC(O)C(=O)O` (centres unmarked) [malate], the “dynamic mass redistribution” value in experiment [1] is on record as “Metabolite SUCNR1 agonists (malate, oxaloacetate, methylmalonate, itaconate, malonate) showed concentration-dependent responses upon SUCNR1 stimulation”.

A word on the EC50: it is the concentration at which the effect is half-maximal.
